For one data set, the target named is T1, AIMP2-DX2 (Homo sapiens, UniProt Q13155).
T1 sequence (Q13155 1-251 isoform Q13155-2): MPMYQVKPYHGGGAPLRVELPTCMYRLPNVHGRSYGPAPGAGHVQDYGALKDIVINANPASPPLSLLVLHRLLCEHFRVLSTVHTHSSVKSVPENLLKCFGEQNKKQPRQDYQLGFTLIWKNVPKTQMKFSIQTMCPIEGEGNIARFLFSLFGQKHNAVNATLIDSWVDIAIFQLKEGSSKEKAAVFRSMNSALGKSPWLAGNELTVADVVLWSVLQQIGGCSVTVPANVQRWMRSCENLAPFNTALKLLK
Description: DX2-nanoluciferase assay (DX2 expression change) in transfected A549 cells. The settings on record: inhibitory effect on AIMP2-DX2 expression; for inhibition at 40 µM: A549, 4 h, read-out: DX-Nanoluciferase activity (40 μM), 40 μM, 4 hours treatment, A549 cells transfected with nanoluciferase-DX2; for DX-Nanoluciferase activity (40 μM): 4 hours treatment, A549 cells transfected with nanoluciferase-DX2.

Another data set deals with A549 cells. The experiment in a line: Cell viability by MTT method in A549 cells. The format is cell-based. The arrangement: concentration or dose not given beside the values. The note with it: 72 hours treatment. For orientation: Tetrazolium dyes change colour on reduction, which living cells bring about.

The text below walks through data of patent US20220204497A1, “NOVEL COMPOUND HAVING ANTICANCER ACTIVITY, AND METHOD FOR PRODUCING SAME” (MEDICINAL BIOCONVERGENCE RESEARCH CENTER, priority 2019, published 2022).

Description for AIMP2-DX2: After cloning DX2 into a plasmid expressing nanoluciferase, the plasmid was transfected into A549 cells. Transfected cells were seeded 1×10^4 per well in a 96-well plate and stabilized for 12 hours. […] Cell viability was measured by the MTT method after 72 hours of treatment with each concentration of the compound in A549 cells.

In the case of `Cc1ccc(S(=O)(=O)N[C@@H](CC(C)C)C(=O)Nc2ccc(N3CCN(C(=O)OC(C)(C)C)CC3)nc2)cc1` [Compound 16, (S)-tert-butyl 4-(5-(4-methyl-2-(4-methylphenylsulfonamido)pentanamido)pyridin-2-yl)piperazine-1-carboxylate], the inhibition at 40 µM on AIMP2-DX2 was 9.8%. The “Cell Viability (% inhibition) (A549)” value in the data set on A549 cells turned out to be 73.5%.

`Cc1ccc(S(=O)(=O)N[C@@H](CC(C)C)C(=O)NCCN2CCOCC2)cc1` [Compound 18, (S)-4-methyl-2-(4-methylphenylsulfonamido)-N-(2-morpholinoethyl)pentanamide]: the inhibition at 40 µM on AIMP2-DX2 came to 14.8%. In addition, in the data set on A549 cells, the “Cell Viability (% inhibition) (A549)” value was found to be 8.7%.

With `CC(C)C[C@H](NS(=O)(=O)c1cccc([N+](=O)[O-])c1)C(=O)N1CCOCC1` [Compound 19, (S)—N-(4-methyl-1-morpholino-1-oxopentan-2-yl)-3-nitrobenzenesulfonamide], the inhibition at 40 µM on AIMP2-DX2 worked out at 33.8 ± 8.2%. In the data set with A549 cells, the “Cell Viability (% inhibition) (A549)” value is 22.61%.

Consider `CC(C)C[C@H](NS(=O)(=O)c1cccc(N)c1)C(=O)N1CCOCC1` [Compound 20, (S)-3-amino-N-(4-methyl-1-morpholino-1-oxopentan-2-yl)benzenesulfonamide], for which the inhibition at 40 µM on AIMP2-DX2 came to 31 ± 9.9%. Further, the “Cell Viability (% inhibition) (A549)” value in the data set with A549 cells is listed as 24.57%.

As to `CC(C)C[C@H](NS(=O)(=O)c1ccc(C(F)(F)F)cc1)C(=O)Nc1ccc(N2CCOCC2)cc1` [Compound 23, (S)-4-methyl-N-(4-morpholinophenyl)-2-(4-(trifluoromethyl)phenylsulfonamido)pentanamide], on AIMP2-DX2, the inhibition at 40 µM came out at 24.5 ± 4.4%. Also, the “Cell Viability (% inhibition) (A549)” value in the data set on A549 cells was determined as 64.35%.

Turning to `CC(C)C[C@H](NS(=O)(=O)c1cccc([N+](=O)[O-])c1)C(=O)Nc1ccc(N2CCOCC2)cc1` [Compound 24, (S)-4-methyl-N-(4-morpholinophenyl)-2-(3-nitrophenylsulfonamido)pentanamide], at AIMP2-DX2, the inhibition at 40 µM stood at 59.4 ± 2.3%. Moreover, the “Cell Viability (% inhibition) (A549)” value in the data set with A549 cells is 18.38 ± 11.76%.

For the molecule `CC(C)C[C@H](NS(=O)(=O)c1cccc2ccccc12)C(=O)Nc1ccc(N2CCOCC2)cc1` [Compound 25, (S)-4-methyl-N-(4-morpholinophenyl)-2-(naphthalene-1-sulfonamido)pentanamide], the inhibition at 40 µM at AIMP2-DX2 stood at 25.5 ± 5.4%. In addition, the “Cell Viability (% inhibition) (A549)” value in the data set on A549 cells came to 38.92 ± 1.69%.

For `CC(C)C[C@H](NS(=O)(=O)c1ccc2ccccc2c1)C(=O)Nc1ccc(N2CCOCC2)cc1` [Compound 26, (S)-4-methyl-N-(4-morpholinophenyl)-2-(naphthalene-2-sulfonamido)pentanamide], on AIMP2-DX2, the inhibition at 40 µM was determined as 52.7 ± 10.5%. Also, the “Cell Viability (% inhibition) (A549)” value in the data set with A549 cells is reported as 5.95 ± 2.15%.

For the molecule `CC(C)C[C@H](NC(=O)CCS(=O)(=O)c1ccccc1)C(=O)OCc1ccccc1` [Compound 28, (S)-Benzyl 4-methyl-2-(3-(phenylsulfonyl)propanamido)pentanoate], the “DX-Nanoluciferase activity (40 μM)” value on AIMP2-DX2 is recorded as 57.4 ± 8.4. The “Cell Viability (% inhibition) (A549)” value with A549 cells is given as 12.43 ± 8.58%.

As for `CC(C)C[C@H](NS(=O)(=O)c1cccs1)C(=O)Nc1ccc(N2CCOCC2)cc1` [Compound 30, (S)-4-methyl-N-(4-morpholinophenyl)-2-(thiophene-2-sulfonamido)pentanamide], the inhibition at 40 µM at AIMP2-DX2 is 23.7 ± 3.1%. In addition, the “Cell Viability (% inhibition) (A549)” value in the data set with A549 cells was determined as 9.46 ± 9.61%.

As for `CC(C)C[C@H](NS(=O)(=O)c1ccc(C(C)C)cc1)C(=O)Nc1ccc(N2CCOCC2)cc1` [Compound 32, (S)-2-(4-isopropylphenylsulfonamido)-4-methyl-N-(4-morpholinophenyl)pentanamide], the inhibition at 40 µM on AIMP2-DX2 is 25.8 ± 2.5%. For the same molecule, in the data set with A549 cells, the “Cell Viability (% inhibition) (A549)” value amounted to 20.27 ± 5.87%.

With `CC(C)C[C@H](NS(=O)(=O)c1ccc(OCc2ccccc2)cc1)C(=O)N1CCOCCOCCOCC1` [Compound 34, (S)-4-(benzyloxy)-N-(4-methyl-1-oxo-1-(1,4,7-trioxa-10-azacyclododecan-10-yl)pentan-2-yl)benzenesulfonamide], at AIMP2-DX2, the inhibition at 40 µM is 34.4 ± 0.91%. Also, the “Cell Viability (% inhibition) (A549)” value in the data set with A549 cells is reported as 38.82 ± 5.12%.

Turning to `CC(C)C[C@H](NS(=O)(=O)c1ccc(O)cc1)C(=O)N1CCOCCOCCOCC1` [Compound 35, (S)-4-hydroxy-N-(4-methyl-1-oxo-1-(1,4,7-trioxa-10-azacyclododecan-10-yl)pentan-2-yl)benzenesulfonamide], on AIMP2-DX2, the inhibition at 40 µM worked out at 41.9 ± 1.66%. Also, the “Cell Viability (% inhibition) (A549)” value in the data set on A549 cells was −1.97 ± 14.7%.

On to `CC(C)C[C@H](NS(=O)(=O)c1ccc(C(=O)OCc2ccccc2)cc1)C(=O)N1CCOCCOCCOCC1` [Compound 36, (S)-benzyl 4-(N-(4-methyl-1-oxo-1-(1,4,7-trioxa-10-azacyclododecan-10-yl)pentan-2-yl)sulfamoyl)benzoate], for which the inhibition at 40 µM at AIMP2-DX2 amounted to 36.8 ± 2.25%. Besides, in the data set on A549 cells, the “Cell Viability (% inhibition) (A549)” value worked out at 64.40 ± 2.96%.

For the molecule `Cc1ccc(S(=O)(=O)N[C@@H](CC(=O)OC(C)(C)C)C(=O)N2CCOCC2)cc1` [Compound 37, (S)-tert-butyl 3-(4-methylphenylsulfonamido)-4-morpholino-4-oxobutanoate], the inhibition at 40 µM at AIMP2-DX2 is 45 ± 7.8%. The “Cell Viability (% inhibition) (A549)” value in the data set on A549 cells is 20.33%.

For the molecule `Cc1ccc(S(=O)(=O)N[C@@H](Cc2ccccc2)C(=O)N2CCOCC2)cc1` [Compound 38, (S)-4-methyl-N-(1-morpholino-1-oxo-3-phenylpropan-2-yl)benzenesulfonamide], the inhibition at 40 µM on AIMP2-DX2 was 32.3 ± 2.6%. Besides, in the data set on A549 cells, the “Cell Viability (% inhibition) (A549)” value was found to be 15.14 ± 1.24%.

In the case of `Cc1ccc(S(=O)(=O)N[C@@H](CO)C(=O)N2CCOCC2)cc1` [Compound 39, (S)—N-(3-hydroxy-1-morpholino-1-oxopropan-2-yl)-4-methylbenzenesulfonamide], at AIMP2-DX2, the inhibition at 40 µM was 7.7 ± 11.2%. Moreover, the “Cell Viability (% inhibition) (A549)” value with A549 cells is −2.43 ± 0.94%.

On to `Cc1ccc(S(=O)(=O)N[C@H](C(=O)N2CCOCC2)C(C)C)cc1` [Compound 40, (S)-4-methyl-N-(3-methyl-1-morpholino-1-oxobutan-2-yl)benzenesulfonamide], for which the inhibition at 40 µM at AIMP2-DX2 was 31.3 ± 10.3%. Besides, the “Cell Viability (% inhibition) (A549)” value in the data set with A549 cells is given as −5.41 ± 6.12%.

Turning to `Cc1ccc(S(=O)(=O)N[C@@H](CS)C(=O)N2CCOCC2)cc1` [Compound 41, (R)—N-(3-mercapto-1-morpholino-1-oxopropan-2-yl)-4-methylbenzenesulfonamide], on AIMP2-DX2, the inhibition at 40 µM is 52.5 ± 5.6%. For the same molecule, the “Cell Viability (% inhibition) (A549)” value in the data set on A549 cells came out at 12.16 ± 6.14%.

With `Cc1ccc(S(=O)(=O)N[C@H](C(=O)Nc2ccc(N3CCOCC3)cc2)[C@H](C)O)cc1` [Compound 42, (2S,3S)-3-hydroxy-2-(4-methylphenylsulfonamido)-N-(4-morpholinophenyl)butanamide], at AIMP2-DX2, the inhibition at 40 µM was -12.8 ± 10.6%. For the same molecule, the “Cell Viability (% inhibition) (A549)” value in the data set with A549 cells is recorded as 13.24 ± 6.93%.

Consider `CC[C@H](C)[C@H](NS(=O)(=O)c1ccc(C)cc1)C(=O)Nc1ccc(N2CCOCC2)cc1` [Compound 43, (2S,3S)-3-methyl-2-(4-methylphenylsulfonamido)-N-(4-morpholinophenyl)pentanamide], for which, on AIMP2-DX2, the inhibition at 40 µM stood at 42.9 ± 3.9%. Also, in the data set with A549 cells, the “Cell Viability (% inhibition) (A549)” value worked out at 17.08 ± 7.96%.

`Cc1ccc(S(=O)(=O)N[C@@H](Cc2cc3ccccc3[nH]2)C(=O)Nc2ccc(N3CCOCC3)cc2)cc1` [Compound 46, (S)-3-(1H-indol-2-yl)-2-(4-methylphenylsulfonamido)-N-(4-morpholinophenyl) propanamide]: the “DX-Nanoluciferase activity (40 μM)” value at AIMP2-DX2 came out at 67.1 ± 10.8. The “Cell Viability (% inhibition) (A549)” value in the data set on A549 cells turned out to be 61.35 ± 10.27%.

`Cc1ccc(S(=O)(=O)N[C@@H](Cc2cn(C)c3ccccc23)C(=O)Nc2ccc(N3CCOCC3)cc2)cc1` [Compound 47, (S)-3-(1-methyl-1H-indol-3-yl)-2-(4-methylphenylsulfonamido)-N-(4-morpholinophenyl) propanamide]: at AIMP2-DX2, the “DX-Nanoluciferase activity (40 μM)” value is listed as 38.20 ± 7.73. Also, in the data set on A549 cells, the “Cell Viability (% inhibition) (A549)” value is on record as 64.95 ± 2.84%.

For `Cc1ccc(S(=O)(=O)N[C@@H](CC(C)C)C(=O)OCc2ccccc2)cc1` [Compound 49, (S)-benzyl 4-methyl-2-(4-methylphenylsulfonamido)pentanoate], the inhibition at 40 µM on AIMP2-DX2 is 43.1 ± 6.46%. Also, in the data set with A549 cells, the “Cell Viability (% inhibition) (A549)” value is listed as 96.77 ± 0.70%.

Take `Cc1ccc(C(=O)N[C@@H](CC(C)C)C(=O)OCc2ccccc2)cc1` [Compound 50, (S)-benzyl 4-methyl-2-(4-methylbenzamido)pentanoate]: the inhibition at 40 µM on AIMP2-DX2 came to 65.9 ± 4%. Also, in the data set with A549 cells, the “Cell Viability (% inhibition) (A549)” value was determined as 75.41 ± 3.28%.

On to `CC(C)C[C@H](NC(=O)c1ccc(C(C)(C)C)cc1)C(=O)OCc1ccccc1` [Compound 51, (S)-benzyl 2-(4-tert-butylbenzamido)-4-methylpentanoate], for which the inhibition at 40 µM at AIMP2-DX2 was 63.5 ± 4.5%. For the same molecule, the “Cell Viability (% inhibition) (A549)” value with A549 cells stood at 11.62 ± 4.29%.

On to `CC(C)C[C@H](NC(=O)c1ccc2c(c1)OCO2)C(=O)OCc1ccccc1` [Compound 52, (S)-benzyl 2-(benzo[d][1,3]dioxole-5-carboxamido)-4-methylpentanoate], for which the inhibition at 40 µM at AIMP2-DX2 was -5.6 ± 5.2%. The “Cell Viability (% inhibition) (A549)” value with A549 cells turned out to be 64.59 ± 5.15%.

For the molecule `CC(C)C[C@H](NC(=O)c1ccc(NC(=O)OC(C)(C)C)cc1)C(=O)OCc1ccccc1` [Compound 53, (S)-benzyl 2-(4-(tert-butoxycarbonylamino)benzamido)-4-methylpentanoate], the inhibition at 40 µM at AIMP2-DX2 came to 43.7 ± 9.9%. The “Cell Viability (% inhibition) (A549)” value in the data set on A549 cells amounted to 49.19 ± 13.33%.
